Source: US7214669B2, “Tetracycline derivatives and methods of use thereof” (Tetragenex Pharmaceuticals, Inc., priority 2001, dated 2007)

How the values were obtained:
Human recombinant MMP1 = target: T1, Human recombinant MMP1 (Homo sapiens, UniProt P03956); assay: MMP1 (Collagenase-1) inhibition, 14C collagen release; type: biochemical; details: 35° C., 5 hours; read-out: MMP-1 inhibitory activity, IC50
T1 sequence (P03956 100-469): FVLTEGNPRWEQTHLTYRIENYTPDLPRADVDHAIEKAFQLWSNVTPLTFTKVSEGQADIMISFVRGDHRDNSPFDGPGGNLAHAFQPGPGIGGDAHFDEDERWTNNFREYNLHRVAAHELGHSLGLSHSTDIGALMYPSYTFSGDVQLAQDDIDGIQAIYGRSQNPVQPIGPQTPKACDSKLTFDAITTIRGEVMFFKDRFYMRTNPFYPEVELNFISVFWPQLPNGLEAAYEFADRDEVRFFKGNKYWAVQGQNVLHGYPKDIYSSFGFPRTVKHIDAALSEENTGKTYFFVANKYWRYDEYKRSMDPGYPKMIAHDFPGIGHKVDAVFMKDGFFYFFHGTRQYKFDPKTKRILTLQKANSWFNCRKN

Human recombinant MMP3 = Human recombinant MMP3 (Homo sapiens, UniProt P08254); assay: MMP3 (Stromelysin 1) inhibition, 14C casein release; type: biochemical; details: 37° C., 16 hours; read-out: MMP-3 inhibitory activity, IC50
Human recombinant MMP14 = Human recombinant MMP14 (Homo sapiens, UniProt P50281); assay: MMP14 (MTI-MMP) inhibition, 14C collagen release; type: biochemical; details: 35° C., 15 hours; read-out: MMP-14 inhibitory activity, IC50
MMP2 (Gelatinase A) = target: T2, MMP2 (Gelatinase A) (Homo sapiens, UniProt P08253); assay: MMP2 (Gelatinase A) inhibition, 14C gelatin release; type: biochemical; details: 37° C., 16 hours; read-out: MMP-2 inhibitory activity, IC50
T2 sequence (P08253 110-660): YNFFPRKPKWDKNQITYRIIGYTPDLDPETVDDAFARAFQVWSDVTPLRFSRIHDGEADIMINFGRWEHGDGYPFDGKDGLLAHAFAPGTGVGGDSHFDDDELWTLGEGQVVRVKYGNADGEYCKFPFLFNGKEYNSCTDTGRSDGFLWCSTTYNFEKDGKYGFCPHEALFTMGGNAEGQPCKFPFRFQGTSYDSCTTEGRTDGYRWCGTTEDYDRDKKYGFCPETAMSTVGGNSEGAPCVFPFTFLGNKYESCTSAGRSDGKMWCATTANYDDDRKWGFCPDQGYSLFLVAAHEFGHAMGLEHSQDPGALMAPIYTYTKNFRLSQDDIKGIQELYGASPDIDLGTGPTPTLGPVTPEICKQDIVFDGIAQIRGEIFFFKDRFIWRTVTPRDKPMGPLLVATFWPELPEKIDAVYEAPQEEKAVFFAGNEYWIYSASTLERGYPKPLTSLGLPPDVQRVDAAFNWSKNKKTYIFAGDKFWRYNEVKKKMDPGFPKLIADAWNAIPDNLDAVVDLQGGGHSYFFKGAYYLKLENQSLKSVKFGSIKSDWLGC

Human recombinant MMP9 = Human recombinant MMP9 (Homo sapiens, UniProt P14780); assay: MMP9 (Gelatinase B) inhibition, 14C gelatin release; type: biochemical; details: 37° C., 16 hours; read-out: MMP-9 inhibitory activity, IC50
[1] = system: RPMI-8226 human myeloma cancer cells; assay: Membrane Invasion Culture System (MICS) chemo-invasion assay; type: cell-based; details: 24 hours, + = increased invasiveness
Source text: (§1) Another objective was to analyze the effects of specific, tetracycline derived compounds on the in-vitro chemo-invasive potential of: • C8161 human melanoma cells • MDA-MB-231 human breast cancer cells • PC3 human prostate cancer cells • RPM18226 human myeloma cancer cells • Ark human myeloma cancer cells • Arp-1 human myeloma cancer cells
(§2) The Membrane Invasion Culture System (MICS) in vitro chemo-invasion assay was chosen to measure changes in the invasive potential of specific human cancer cells in response to tetracycline derived compounds. Stock solutions of each compound were hydrated in water containing 2% DMSO and pH 10.0. Upon solubilization, HCl was added to the solution to establish a pH of 7.5–8.0. This solution was then wrapped in foil and kept at 4° C. during the 24 hours of assay. Fresh compound was prepared for each assay. The in vitro chemoinvasion analyses for tumor cell invasiveness are performed using the Membrane Invasion Culture System (MICS) as previously described.
(§3) The MICS system is a thermally treated plastic manifold system consisting of two matched sets of plates containing fourteen wells, 13 mm in diameter. Interposed between these plates was a polycarbonate filter containing 10 μm pores and coated with a defined matrix composed of human laminin/collagen IV/gelatin that formed a 35 μm thick barrier between the top and bottom sections of the wells in MICS. Prior to placing this barrier in place, the lower wells were filled with serum-free RPMI culture medium made 50% in conditioned medium obtained from 2-day-old cultures of human fibroblasts which had been cleared of cells and cellular debris by either centrifugation, or filtering through a 0.45 μm sterile filter. The barrier was then placed on the lower wells and fresh serum-free medium added to the upper wells after assembly of the system. Fifty thousand tumor cells were then added to the wells either in the presence of the compound, or the DMSO vehicle (the controls). Of the 12 assay wells on each manifold, 3 randomized wells acted as controls, 3 wells received 1 μg/ml of compound, 3 received 10 μg/ml and 3 received 25 μg/ml. After 24 hours, cells and media were removed from the lower wells and replaced by phosphate buffered saline plus 2 mM EDTA. This solution was used to remove all cells from the lower well, and this wash was added to the recovered cells plus medium from the same well. These samples were then collected onto a polylysine containing polycarbonate membrane containing 3 μm pores using a Dot-Blot manifold system. These collection filters were then fixed in methanol, and stained using Wright's stain (Leukostat staining kit) in situ. The filters were then mounted on microscope slides with microscope immersion oil (which reduced the light refraction from the pores) and 5 microscopic fields were counted to calculate the number of cells which invaded through the membrane over the 24 hour period. These numbers were then statistically analyzed as discussed below.

[2] = system: C8161 human melanoma cells; assay: as above; type: cell-based; details: 24 hours, + = increased invasiveness
Source text: as §1, §2, §3

[3] = system: PC-3 ML human prostate cancer cells; assay: as above; type: cell-based; details: 24 hours, + = increased invasiveness
Source text: as §1, §2, §3

[4] = system: MDA-MB-231 human breast cancer cells; assay: as above; type: cell-based; details: 24 hours, + = increased invasiveness
Source text: as §1, §2, §3

Sequence of Human recombinant MMP3 (P08254 100-477): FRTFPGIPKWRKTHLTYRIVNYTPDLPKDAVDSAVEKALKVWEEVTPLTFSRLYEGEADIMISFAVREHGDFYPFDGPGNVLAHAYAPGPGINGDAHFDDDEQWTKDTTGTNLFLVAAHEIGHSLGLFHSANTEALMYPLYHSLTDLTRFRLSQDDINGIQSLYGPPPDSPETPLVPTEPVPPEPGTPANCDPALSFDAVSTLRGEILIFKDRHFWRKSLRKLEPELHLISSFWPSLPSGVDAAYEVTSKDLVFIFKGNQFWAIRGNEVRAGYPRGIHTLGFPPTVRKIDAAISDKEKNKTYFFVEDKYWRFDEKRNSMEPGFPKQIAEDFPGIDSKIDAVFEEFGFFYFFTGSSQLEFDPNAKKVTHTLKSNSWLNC
Sequence of Human recombinant MMP9 (P14780 94-707): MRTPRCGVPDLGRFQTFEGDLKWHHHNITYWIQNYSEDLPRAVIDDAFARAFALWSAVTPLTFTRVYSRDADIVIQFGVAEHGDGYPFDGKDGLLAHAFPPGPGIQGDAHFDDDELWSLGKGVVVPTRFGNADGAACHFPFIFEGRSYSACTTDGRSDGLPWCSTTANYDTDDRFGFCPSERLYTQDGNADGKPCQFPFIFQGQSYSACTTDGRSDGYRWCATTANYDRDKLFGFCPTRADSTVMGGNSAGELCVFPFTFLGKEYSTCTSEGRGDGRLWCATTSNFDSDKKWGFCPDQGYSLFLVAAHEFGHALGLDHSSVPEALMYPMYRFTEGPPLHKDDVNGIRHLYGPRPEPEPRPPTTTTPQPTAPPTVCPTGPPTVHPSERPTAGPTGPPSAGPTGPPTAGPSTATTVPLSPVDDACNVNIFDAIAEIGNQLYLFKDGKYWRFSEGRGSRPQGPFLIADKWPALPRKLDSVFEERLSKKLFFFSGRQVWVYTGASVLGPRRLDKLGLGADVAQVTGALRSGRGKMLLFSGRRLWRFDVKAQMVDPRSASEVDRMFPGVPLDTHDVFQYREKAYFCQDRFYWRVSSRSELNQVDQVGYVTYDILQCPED

Compound	IC50 (Human recombinant MMP1) [µM]	IC50 (Human recombinant MMP3) [µM]	IC50 (Human recombinant MMP14) [µM]	IC50 (MMP2 (Gelatinase A)) [µM]	IC50 (Human recombinant MMP9) [µM]	also measured
7-Cyclobutylmethylamino-6-deoxy-5-hydroxytetracycline H2SO4 [Compound 33]	295	205	94	263	142	
CC1c2c(N)cc([N+](=O)[O-])c(O)c2C(=O)C2=C(O)C3(O)C(=O)C(C(N)=O)=C(O)C(N(C)C)C3C(O)C21 (stereo not shown) [Compound 14, 7-Amino-6-deoxy-5-hydroxy-9-nitrotetracycline H2SO4]	279	> 1000	386			
CC1c2c(N(CCC(C)(C)C)CCC(C)(C)C)ccc(O)c2C(=O)C2=C(O)C3(O)C(=O)C(C(N)=O)=C(O)C(N(C)C)C3C(O)C21 (stereo not shown) [Compound 19, 7-Di-(3,3-dimethylbutyl)amino-6-deoxy-5-hydroxytetracycline H2SO4]	270	394	90	925	98	
CC1c2c(N=[N+]=[N-])ccc(O)c2C(=O)C2=C(O)C3(O)C(=O)C(C(N)=O)=C(O)C(N(C)C)C3C(O)C21 (stereo not shown) [Compound 20, 7-Azido-6-deoxy-5-hydroxy-tetracycline H2SO4]	429	281	266	511	162	
CC1c2c([N+]#N)ccc(O)c2C(=O)C2=C(O)C3(O)C(=O)C(C(N)=O)=C(O)C(N(C)C)C3C(O)C21 (stereo not shown) [Compound 21, 6-Deoxy-5-hydroxytetracycline-7-diazonium H2SO4]	293	> 1000	115	> 1000	79	
CCCN(CCC)c1ccc(O)c2c1C(C)C1C(=C(O)C3(O)C(=O)C(C(N)=O)=C(O)C(N(C)C)C3C1O)C2=O (stereo not shown) [Compound 24, 7-Di-n-propylamino-6-deoxy-5-hydroxytetracycline H2SO4]	405	191	160	724	127	
CC(C)CNc1ccc(O)c2c1C(C)C1C(=C(O)C3(O)C(=O)C(C(N)=O)=C(O)C(N(C)C)C3C1O)C2=O (stereo not shown) [Compound 25, 7-Isobutylamino-6-deoxy-5-hydroxytetracycline H2SO4]	974	303	185	397	148	
CC1c2c([N+](=O)[O-])cc(C(C)(C)C)c(O)c2C(=O)C2=C(O)C3(O)C(=O)C(C(N)=O)=C(O)CC3C(O)C21 (stereo not shown) [Compound 40, 7-Nitro-9-tertbutyl-4-dedimethylamino-6-deoxy-5-hydroxy-tetracycline H2SO4]	560	91	29	362		percent inhibition, RPMI-8226 (Multiple Myeloma) ([1]; 1 ug/mL): 16%; percent inhibition, RPMI-8226 (Multiple Myeloma) ([1]; 10 ug/mL): 11%; percent inhibition, RPMI-8226 (Multiple Myeloma) ([1]; 25 ug/mL): 9%; percent inhibition, C8161 (Melanoma) ([2]; 1 ug/mL): +1%; percent inhibition, C8161 (Melanoma) ([2]; 10 ug/mL): +5%; percent inhibition, C8161 (Melanoma) ([2]; 25 ug/mL): +4%; percent inhibition, PC-3 ML (Prostrate) ([3]; 1 ug/mL): +1%; percent inhibition, PC-3 ML (Prostrate) ([3]; 10 ug/mL): +7%; percent inhibition, PC-3 ML (Prostrate) ([3]; 25 ug/mL): +4%; percent inhibition, MDA-MB-231 (Breast) ([4]; 1 ug/mL): 9%; percent inhibition, MDA-MB-231 (Breast) ([4]; 10 ug/mL): 15%; percent inhibition, MDA-MB-231 (Breast) ([4]; 25 ug/mL): 20^B percent
CC1c2c([N+]#N)cc(C(C)(C)C)c(O)c2C(=O)C2=C(O)C3(O)C(=O)C(C(N)=O)=C(O)C(N(C)C)C3C(O)C21 (stereo not shown) [Compound 43, 9-tertbutyl-6-deoxy-5-hydroxytetracycline-7-diazonium H2SO4]	600	174		2480	319	

Second part, led by results:

IC50 (Human recombinant MMP1) [µM]	IC50 (Human recombinant MMP3) [µM]	IC50 (Human recombinant MMP14) [µM]	IC50 (MMP2 (Gelatinase A)) [µM]	IC50 (Human recombinant MMP9) [µM]	Compound	also measured
122	350	98	> 1000	110	CCCCN(CCCC)c1ccc(O)c2c1C(C)C1C(=C(O)C3(O)C(=O)C(C(N)=O)=C(O)C(N(C)C)C3C1O)C2=O (stereo not shown) [Compound 17, 7-Di-n-Butylamino-6-deoxy-5-hydroxytetracycline H2SO4]	
123	335	102	233	131	CCCCCCN(CCCCCC)c1ccc(O)c2c1C(C)C1C(=C(O)C3(O)C(=O)C(C(N)=O)=C(O)C(N(C)C)C3C1O)C2=O (stereo not shown) [Compound 18, 7-Di-n-Hexylamino-6-deoxy-5-hydroxytetracycline H2SO4]	
396	462	459	254	341	CC(=O)Nc1cc([N+](=O)[O-])c(O)c2c1C(C)C1C(=C(O)C3(O)C(=O)C(C(N)=O)=C(O)C(N(C)C)C3C1O)C2=O (stereo not shown) [Compound 22, 7-Acetamido-9-nitro-6-deoxy-5-hydroxytetracycline H2SO4]	
> 1000	> 1000	> 1000	306	> 1000	CC(=O)Nc1ccc(O)c2c1C(C)C1C(=C(O)C3(O)C(=O)C(C(N)=O)=C(O)C(N(C)C)C3C1O)C2=O (stereo not shown) [Compound 23, 7-Acetamido-6-deoxy-5-hydroxytetracycline H2SO4]	
	1560	428	606	405	CC(=O)Nc1cc(N=[N+]=[N-])c(O)c2c1C(C)C1C(=C(O)C3(O)C(=O)C(C(N)=O)=C(O)C(N(C)C)C3C1O)C2=O (stereo not shown) [Compound 42, 7-Acetylamino-9-azido-6-deoxy-5-hydroxy-tetracycline]	
1440	224		1470	591	CC1c2c(N)cc(C(C)(C)C)c(O)c2C(=O)C2=C(O)C3(O)C(=O)C(C(N)=O)=C(O)C(N(C)C)C3C(O)C21 (stereo not shown) [Compound 44, 7-Amino-9-tertbutyl-6-deoxy-5-hydroxytetracycline H2SO4]	
384	194		2450	6630	CC1c2c(N=[N+]=[N-])cc(C(C)(C)C)c(O)c2C(=O)C2=C(O)C3(O)C(=O)C(C(N)=O)=C(O)C(N(C)C)C3C(O)C21 (stereo not shown) [Compound 45, 7-Azido-9-tertbutyl-6-deoxy-5-hydroxytetracycline H2SO4]	
